# Source: patent US4272437A, “Antibacterial agents, and 4-thio azetidinone intermediates” (priority 1979, dated 1981)
# Where two headings read alike, the source gives them in different places.
# Assays:
# [1] = tested on: Ser. marcescens A-20019; test: MIC, tube dilution, Serratia marcescens A20019; assay type: cell-based; settings: overnight 37° C.; for Minimum Inhibitory Concentration (M.I.C.): Serratia marcescens A20019; for MIC: Serratia marcescens, A20019, Serratia marcescens A20019, read-out: Minimum Inhibitory Concentration (M.I.C.)
# Source text: (§1) Representative compounds of the present invention were subjected to in vitro antibiotic screening against a variety of microorganisms.
# [2] = tested on: Providencia stuartii A21205; test: MIC, tube dilution, Providencia stuartii (Pr. rettgeri) A21205; assay type: cell-based; settings: for MIC: Providencia stuartii
# Source text: as §1
# [3] = tested on: Klebsiella species A20468; test: MIC, tube dilution, Klebsiella species A20468; assay type: cell-based; settings: Klebsiella species (K. pneumoniae) A20468, overnight 37° C.; for MIC: read-out: Minimum Inhibitory Concentration (M.I.C.)
# Source text: as §1
# [4] = tested on: Staph. aureus (Meth-Res) A-15097; test: MIC, tube dilution, Staphylococcus aureus A15097 (Meth-Res); assay type: cell-based; settings: overnight 37° C.; for MIC: Staphylococcus aureus
# Source text: as §1
# [5] = tested on: Staph. aureus (Pen-Res) A-9606; test: MIC, tube dilution, Staphylococcus aureus A9606 (Pen-Res); assay type: cell-based; settings: overnight 37° C.; for MIC: Staphylococcus aureus
# Source text: as §1
# [6] = tested on: K. pneumoniae A-15130; test: MIC, tube dilution, Klebsiella pneumoniae A15130; assay type: cell-based; settings: overnight 37° C.; for Minimum Inhibitory Concentration (M.I.C.): K. pneumoniae A15130; for MIC: Klebsiella pneumoniae, A15130, K. pneumoniae A15130, read-out: Minimum Inhibitory Concentration (M.I.C.)
# Source text: as §1
# [7] = tested on: Ps. aeruginosa A-9843A; test: MIC, tube dilution, Pseudomonas aeruginosa A9843A; assay type: cell-based; settings: overnight 37° C.; for MIC: Pseudomonas aeruginosa, A9843A, read-out: Minimum Inhibitory Concentration (M.I.C.), Pseudomonas aeruginosa A9843A
# Source text: as §1
# [8] = tested on: Str. faecalis A-20688; test: MIC, tube dilution, Streptococcus faecalis A20688; assay type: cell-based; settings: overnight 37° C.; for MIC: Enterococcus faecalis, A20688, Str. faecalis A20688, read-out: Minimum Inhibitory Concentration (M.I.C.)
# Source text: as §1
# [9] = tested on: Ent. cloacae A-9659; test: MIC, tube dilution, Enterobacter cloacae A9659; assay type: cell-based; settings: overnight 37° C.; for Minimum Inhibitory Concentration (M.I.C.): Enterobacter cloacae A9659; for MIC: Enterobacter cloacae, A9659, Enterobacter cloacae A9659, read-out: Minimum Inhibitory Concentration (M.I.C.)
# Source text: as §1
# [10] = tested on: Staph. aureus A-9537 and 50% serum; test: MIC, tube dilution, Staph. aureus A9537 + 50% serum; assay type: cell-based, Staphylococcus aureus; settings: overnight 37° C.; for MIC: Staphylococcus aureus, read-out: Minimum Inhibitory Concentration (M.I.C.)
# Source text: as §1
# [11] = tested on: Pr. vulgaris A-9716; test: MIC, tube dilution, Proteus vulgaris / Proteus mirabilis A9716; assay type: cell-based, Proteus vulgaris (name changed to Proteus mirabilis); settings: overnight 37° C.; for MIC: Proteus vulgaris
# Source text: as §1
# [12] = tested on: Ps. aeruginosa A-21213; test: MIC, tube dilution, Pseudomonas aeruginosa A21213; assay type: cell-based; settings: Pseudomonas aeruginosa A21213, overnight 37° C.; for MIC: read-out: Minimum Inhibitory Concentration (M.I.C.)
# Source text: as §1
# [13] = tested on: Str. pneumoniae A-9585; test: MIC, tube dilution, Streptococcus pneumoniae A9585; assay type: cell-based; settings: overnight 37° C., Nutrient Broth; for Minimum Inhibitory Concentration (M.I.C.): Str. pneumoniae A9585; for MIC: Streptococcus pneumoniae, A9585, Str. pneumoniae A9585, read-out: Minimum Inhibitory Concentration (M.I.C.)
# Source text: as §1
# [14] = tested on: Pr. morganii A-15153; test: MIC, tube dilution, Proteus morganii A15153; assay type: cell-based; settings: overnight 37° C.; for Minimum Inhibitory Concentration (M.I.C.): Proteus morganii A15153; for MIC: Morganella morganii, A15153, Proteus morganii A15153, read-out: Minimum Inhibitory Concentration (M.I.C.)
# Source text: as §1
# [15] = tested on: Pr. mirabilis A-9900; test: MIC, tube dilution, Proteus mirabilis A9900; assay type: cell-based; settings: overnight 37° C.; for MIC: Proteus mirabilis, A9900, Proteus mirabilis A9900, read-out: Minimum Inhibitory Concentration (M.I.C.)
# Source text: as §1
# [16] = tested on: Staph. aureus A-9537; test: MIC, tube dilution, Staphylococcus aureus A9537; assay type: cell-based; settings: overnight 37° C., Nutrient Broth; for Minimum Inhibitory Concentration (M.I.C.): Staph. aureus A9537; for MIC: Staphylococcus aureus, A9537, Staph. aureus A9537, read-out: Minimum Inhibitory Concentration (M.I.C.)
# Source text: as §1
# [17] = tested on: E. coli A-15119; test: MIC, tube dilution, Escherichia coli A15119; assay type: cell-based; settings: overnight 37° C.; for Minimum Inhibitory Concentration (M.I.C.): E. coli A15119; for MIC: Escherichia coli, A15119, E. coli A15119, read-out: Minimum Inhibitory Concentration (M.I.C.)
# Source text: as §1
# [18] = tested on: Ent. cloacae A-9656; test: MIC, tube dilution, Enterobacter cloacae A9656; assay type: cell-based; settings: Enterobacter cloacae A9656, overnight 37° C.; for MIC: read-out: Minimum Inhibitory Concentration (M.I.C.)
# Source text: as §1
# [19] = tested on: Str. pyogenes A-9604; test: MIC, tube dilution, Streptococcus pyogenes A9604; assay type: cell-based; settings: overnight 37° C., Nutrient Broth; for MIC: Streptococcus pyogenes, A9604, Str. pyogenes A9604, read-out: Minimum Inhibitory Concentration (M.I.C.)
# Source text: as §1
# [20] = tested on: E. coli A-20341-1; test: MIC, tube dilution, Escherichia coli A20341-1; assay type: cell-based
# Source text: as §1
# [21] = Staph. aureus A15097 (Meth-Res)
# [22] = A21205, read-out: Minimum Inhibitory Concentration (M.I.C.)
# [23] = read-out: Minimum Inhibitory Concentration (M.I.C.), Staph. aureus A9606 (Pen-Res)
# [24] = A9716, read-out: Minimum Inhibitory Concentration (M.I.C.), Proteus vulgaris / Proteus mirabilis A9716
# [25] = Escherichia coli, A203411; E. coli A20341-1; overnight 37° C.; read-out: Minimum Inhibitory Concentration (M.I.C.)
# [26] = read-out: Minimum Inhibitory Concentration (M.I.C.), Staph. aureus A15097 (Meth-Res)
Compound,Minimum Inhibitory Concentration (M.I.C.) [1],"Minimum Inhibitory Concentration (M.I.C.) [4, 21]",MIC [1],"MIC [2, 22]",MIC [3],"MIC [5, 23]",MIC [6],MIC [7],MIC [8],MIC [9],MIC [10],"MIC [11, 24]",MIC [12],MIC [13],MIC [14],MIC [15],MIC [16],MIC [17],MIC [18],"MIC [20, 25]",also measured
6-Acetoxymethyl-2-methylpenem-3-carboxylic Acid [Example 2],125 µg/mL,8 µg/mL,–,–,–,–,–,–,–,–,–,–,–,–,–,–,–,–,–,–,"Minimum Inhibitory Concentration (M.I.C.) ([2]; Providencia stuartii (Pr. rettgeri) A21205, overnight 37° C.): 32 µg/mL; Minimum Inhibitory Concentration (M.I.C.) [3]: > 125 µg/mL; Minimum Inhibitory Concentration (M.I.C.) ([5]; Staph. aureus A9606 (Pen-Res)): 4 µg/mL; Minimum Inhibitory Concentration (M.I.C.) [6]: 63 µg/mL; Minimum Inhibitory Concentration (M.I.C.) ([7]; Pseudomonas aeruginosa A9843A): > 125 µg/mL; Minimum Inhibitory Concentration (M.I.C.) ([8]; Str. faecalis A20688): 63 µg/mL; Minimum Inhibitory Concentration (M.I.C.) [9]: 125 µg/mL; Minimum Inhibitory Concentration (M.I.C.) [10]: > 63 µg/mL; Minimum Inhibitory Concentration (M.I.C.) ([11]; Proteus vulgaris / Proteus mirabilis A9716): 63 µg/mL; Minimum Inhibitory Concentration (M.I.C.) [12]: > 125 µg/mL; Minimum Inhibitory Concentration (M.I.C.) [13]: 1 µg/mL; Minimum Inhibitory Concentration (M.I.C.) [14]: 63 µg/mL; Minimum Inhibitory Concentration (M.I.C.) ([15]; Proteus mirabilis A9900): 63 µg/mL; Minimum Inhibitory Concentration (M.I.C.) [16]: 8 µg/mL; Minimum Inhibitory Concentration (M.I.C.) [17]: 32 µg/mL; Minimum Inhibitory Concentration (M.I.C.) [18]: > 125 µg/mL; Minimum Inhibitory Concentration (M.I.C.) ([19]; Str. pyogenes A9604): 2 µg/mL; Minimum Inhibitory Concentration (M.I.C.) ([20]; E. coli A20341-1; overnight 37° C.): 32 µg/mL"
"CCC1C(=O)N2C(C(=O)[O-])=C(C)S[C@H]12.[Na+] (stereo partly drawn) [1 (cis), Sodium 6-Ethyl-2-methylpenem-3-carboxylate]",–,63 µg/mL,> 125 µg/mL,63 µg/mL,> 125 µg/mL,16 µg/mL,> 125 µg/mL,> 125 µg/mL,63 µg/mL,> 125 µg/mL,> 63 µg/mL,63 µg/mL,> 125 µg/mL,4 µg/mL,> 125 µg/mL,125 µg/mL,8 µg/mL,125 µg/mL,> 125 µg/mL,125 µg/mL,MIC [19]: 4 µg/mL
"CC1=C(C(=O)O)N2C(=O)C(C(C)(C)O)C2S1 (stereo not drawn) [Example 3, Potassium 6-(2'-Hydroxyisopropyl)-2-methylpenem-3-carboxylate]",–,–,63 µg/mL,–,> 125 µg/mL,–,125 µg/mL,> 125 µg/mL,125 µg/mL,125 µg/mL,> 63 µg/mL,–,> 125 µg/mL,1 µg/mL,125 µg/mL,63 µg/mL,2 µg/mL,63 µg/mL,125 µg/mL,–,"MIC ([2]; A21205, Providencia stuartii (Pr. rettgeri) A21205, overnight 37° C., read-out: Minimum Inhibitory Concentration (M.I.C.)): 63 µg/mL; MIC ([4]; Staph. aureus A15097 (Meth-Res), read-out: Minimum Inhibitory Concentration (M.I.C.)): 32 µg/mL; MIC ([5]; Staph. aureus A9606 (Pen-Res), read-out: Minimum Inhibitory Concentration (M.I.C.)): 4 µg/mL; MIC ([11]; A9716, Proteus vulgaris / Proteus mirabilis A9716, read-out: Minimum Inhibitory Concentration (M.I.C.)): 32 µg/mL; MIC [19]: 4 µg/mL; MIC ([20]; Escherichia coli, A203411, E. coli A20341-1; overnight 37° C.; read-out: Minimum Inhibitory Concentration (M.I.C.)): 63 µg/mL"
"CC(=O)OCC1=C(C(=O)[O-])N2C(=O)C[C@H]2S1.[Na+] [Preparation 5, Sodium 2-(Acetoxymethyl)penem-3-carboxylate]",–,–,> 125 µg/mL,> 125 µg/mL,> 125 µg/mL,> 125 µg/mL,> 125 µg/mL,> 125 µg/mL,> 125 µg/mL,> 125 µg/mL,> 63 µg/mL,> 125 µg/mL,> 125 µg/mL,> 8 µg/mL,> 125 µg/mL,> 125 µg/mL,125 µg/mL,> 125 µg/mL,> 125 µg/mL,> 125 µg/mL,"MIC [4, 26]: > 125 µg/mL; Minimum Inhibitory Concentration (M.I.C.) [13]: 16 µg/mL; Minimum Inhibitory Concentration (M.I.C.) [16]: > 125 µg/mL"
"O=C([O-])C1=C(c2ccccc2)S[C@@H]2CC(=O)N12.[Na+] [Preparation 7, Sodium 2-Phenylpenem-3-carboxylate]",63 µg/mL,–,32 µg/mL,16 µg/mL,> 125 µg/mL,8 µg/mL,63 µg/mL,> 125 µg/mL,16 µg/mL,32 µg/mL,> 63 µg/mL,4 µg/mL,> 125 µg/mL,–,32 µg/mL,4 µg/mL,2 µg/mL,4 µg/mL,125 µg/mL,> 125 µg/mL,"MIC [4, 26]: 63 µg/mL; Minimum Inhibitory Concentration (M.I.C.) ([5]; Staph. aureus A9606 (Pen-Res)): 16 µg/mL; Minimum Inhibitory Concentration (M.I.C.) [6]: 125 µg/mL; Minimum Inhibitory Concentration (M.I.C.) [9]: 63 µg/mL; Minimum Inhibitory Concentration (M.I.C.) [14]: 63 µg/mL; Minimum Inhibitory Concentration (M.I.C.) [17]: 8 µg/mL"
